Laboratory results taken from the supplement of paper PMC11061612.

Assays:
AZD5153 = compound: COc1nnc2ccc(N3CCC(c4ccc(OCCN5CCN(C)C(=O)[C@H]5C)cc4)CC3)nn12 [AZD5153]; conditions: max 1 µM
Summary of the method: (§1)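 After 24 hours at 37°C and 5% CO2 in 1536-well plates holding 7.5 μl of DMEM/F12 or RPMI with 10% FBS, cancer cell lines were dosed for 72 hours, with final DMSO typically 0.2%. Viability came from CellTiter-Glo 2.0 luminescence, scaled between the means of blank wells and DMSO wells. A non-linear mixed effects model fitted a two-parameter logistic curve to each dose response to give the single-agent IC50.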

AZD8186 = compound: C[C@@H](Nc1cc(F)cc(F)c1)c1cc(C(=O)N(C)C)cc2c(=O)cc(N3CCOCC3)oc12 [AZD8186]; conditions: max 10 µM
Summary of the method: as §1

Palbociclib = compound: CC(=O)c1c(C)c2cnc(Nc3ccc(N4CCNCC4)cn3)nc2n(C2CCCC2)c1=O [Palbociclib]; conditions: max 10 µM
Summary of the method: as §1

Alisertib = compound: COc1cc(Nc2ncc3c(n2)-c2ccc(Cl)cc2C(c2c(F)cccc2OC)=NC3)ccc1C(=O)O [Alisertib]; conditions: max 10 µM
Summary of the method: as §1

Dasatinib = compound: CC1=C(C(=CC=C1)Cl)NC(=O)C2=CN=C(S2)NC3=CC(=NC(=N3)C)N4CCN(CC4)CCO [Dasatinib]; conditions: max 2 µM
Summary of the method: as §1

[1] = compound: O=C(Nc1ccc2[nH]nc(-c3ccncc3)c2c1)[C@@H]1CCN(CC(=O)N2CCN(c3ccc(-c4ncccn4)cc3)CC2)C1; conditions: max 5 µM
Summary of the method: as §1

AZD4320 = compound: CN(CC[C@H](CSC1=CC=CC=C1)NC2=C(C=C(C=C2)S(=O)(=O)NC(=O)C3=CC=C(C=C3)N4CCC(CC4)[C@H](C5=CC=CC=C5C6=CC=C(C=C6)Cl)O)S(=O)(=O)C(F)(F)F)CCO [AZD4320]; conditions: max 1 µM
Summary of the method: as §1

AZD6738 = compound: C[C@@H]1COCCN1C2=NC(=NC(=C2)C3(CC3)[S@](=N)(=O)C)C4=C5C=CNC5=NC=C4 [AZD6738]; conditions: max 10 µM
Summary of the method: as §1

Prexasertib = compound: COc1cccc(OCCCN)c1-c1cc(Nc2cnc(C#N)cn2)n[nH]1 [Prexasertib]; conditions: max 1 µM
Summary of the method: as §1

Trametinib = compound: CC(=O)Nc1cccc(-n2c(=O)n(C3CC3)c(=O)c3c(Nc4ccc(I)cc4F)n(C)c(=O)c(C)c32)c1 [Trametinib]; conditions: max 1 µM
Summary of the method: as §1

Gefitinib = compound: COc1cc2ncnc(Nc3ccc(F)c(Cl)c3)c2cc1OCCCN1CCOCC1 [Gefitinib]; conditions: max 10 µM
Summary of the method: as §1

AZD5991 = compound: Cc1c2c(nn1C)CSCc1cc(n(C)n1)CSc1cc(c3ccccc3c1)OCCCc1c(C(=O)O)n(C)c3c-2c(Cl)ccc13 [AZD5991]; conditions: max 1 µM
Summary of the method: as §1

Carboplatin = compound: C1CC(C1)(C(=O)[O-])C(=O)[O-].N.N.[Pt+2] [Carboplatin]; conditions: max 10 µM
Summary of the method: as §1

AZD0156 = compound: CN(C)CCCOc1ccc(-c2ccc3ncc4c(c3c2)n(C2CCOCC2)c(=O)n4C)cn1 [AZD0156]; conditions: max 3 µM
Summary of the method: as §1

Savolitinib = compound: C[C@@H](c1ccc2nccn2c1)n1nnc2ncc(-c3cnn(C)c3)nc21 [Savolitinib]; conditions: max 1 µM
Summary of the method: as §1

SG3199 = compound: CC1=CN2[C@@H](C1)C=NC3=CC(=C(C=C3C2=O)OC)OCCCCCOC4=C(C=C5C(=C4)N=C[C@@H]6CC(=CN6C5=O)C)OC [SG3199]; conditions: max 0.001 µM
Summary of the method: as §1

AZD1390 = compound: CC(C)n1c(=O)n(C)c2cnc3cc(F)c(-c4ccc(OCCCN5CCCCC5)nc4)cc3c21 [AZD1390]; conditions: max 0.3 µM
Summary of the method: as §1

SN-38 = compound: CCc1c2c(nc3ccc(O)cc13)-c1cc3c(c(=O)n1C2)COC(=O)[C@]3(O)CC [SN-38]; conditions: max 0.3 µM
Summary of the method: as §1

Doxorubicin = compound: COc1cccc2c1C(=O)c1c(O)c3c(c(O)c1C2=O)C[C@@](O)(C(=O)CO)C[C@@H]3O[C@H]1C[C@H](N)[C@H](O)[C@H](C)O1 [Doxorubicin]; conditions: max 1 µM
Summary of the method: as §1

MK-2206 = compound: NC1(c2ccc(-c3nc4ccn5c(=O)[nH]nc5c4cc3-c3ccccc3)cc2)CCC1 [MK-2206]; conditions: max 10 µM
Summary of the method: as §1

Crizotinib = compound: C[C@@H](Oc1cc(-c2cnn(C3CCNCC3)c2)cnc1N)c1c(Cl)ccc(F)c1Cl [Crizotinib]; conditions: max 10 µM
Summary of the method: as §1

AZD1775 = compound: C=CCn1c(=O)c2cnc(Nc3ccc(N4CCN(C)CC4)cc3)nc2n1-c1cccc(C(C)(C)O)n1 [AZD1775]; conditions: max 3 µM
Summary of the method: as §1

AZD2811 = compound: CCN(CCO)CCCOc1ccc2c(Nc3cc(CC(=O)Nc4cccc(F)c4)[nH]n3)ncnc2c1 [AZD2811]; conditions: max 1 µM
Summary of the method: as §1

Taselisib = compound: Cc1nc(-c2cn3c(n2)-c2ccc(-c4cnn(C(C)(C)C(N)=O)c4)cc2OCC3)n(C(C)C)n1 [Taselisib]; conditions: max 10 µM
Summary of the method: as §1

Olaparib = compound: O=C(c1cc(Cc2n[nH]c(=O)c3ccccc23)ccc1F)N1CCN(C(=O)C2CC2)CC1 [Olaparib]; conditions: max 10 µM
Summary of the method: as §1

AZD5363 = compound: C1CN(CCC1(C(=O)N[C@@H](CCO)C2=CC=C(C=C2)Cl)N)C3=NC=NC4=C3C=CN4 [AZD5363]; conditions: max 10 µM
Summary of the method: as §1

SRA737 = compound: N#Cc1cnc(Nc2cc(NC[C@H]3CNCCO3)c(C(F)(F)F)cn2)cn1 [SRA737]; conditions: max 10 µM
Summary of the method: as §1

Selumetinib = compound: Cn1cnc2c(F)c(Nc3ccc(Br)cc3Cl)c(C(=O)NOCCO)cc21 [Selumetinib]; conditions: max 10 µM
Summary of the method: as §1

Lapatinib = compound: CS(=O)(=O)CCNCc1ccc(-c2ccc3ncnc(Nc4ccc(OCc5cccc(F)c5)c(Cl)c4)c3c2)o1 [Lapatinib]; conditions: max 10 µM
Summary of the method: as §1

Venetoclax = compound: CC1(C)CCC(CN2CCN(c3ccc(C(=O)NS(=O)(=O)c4ccc(NCC5CCOCC5)c([N+](=O)[O-])c4)c(Oc4cnc5[nH]ccc5c4)c3)CC2)=C(c2ccc(Cl)cc2)C1 [Venetoclax]; conditions: max 1 µM
Summary of the method: as §1

Paclitaxel = compound: CC(=O)O[C@H]1C(=O)[C@@]2(C)[C@H]([C@H](OC(=O)c3ccccc3)[C@]3(O)C[C@H](OC(=O)[C@H](O)[C@@H](NC(=O)c4ccccc4)c4ccccc4)C(C)=C1C3(C)C)[C@]1(OC(C)=O)CO[C@@H]1C[C@@H]2O [Paclitaxel]; conditions: max 3 µM
Summary of the method: as §1

Etoposide = compound: COc1cc([C@@H]2c3cc4c(cc3[C@@H](O[C@@H]3O[C@@H]5CO[C@@H](C)O[C@H]5[C@H](O)[C@H]3O)[C@H]3COC(=O)[C@H]23)OCO4)cc(OC)c1O [Etoposide]; conditions: max 10 µM
Summary of the method: as §1

5-Fluorouracil = compound: O=c1[nH]cc(F)c(=O)[nH]1 [5-Fluorouracil]; conditions: max 20 µM
Summary of the method: as §1

Gemcitabine = compound: Nc1ccn([C@@H]2O[C@H](CO)[C@@H](O)C2(F)F)c(=O)n1 [Gemcitabine]; conditions: max 0.3 µM
Summary of the method: as §1

AZD7648 = compound: Cc1cc2ncnn2cc1Nc1ncc2c(n1)n(C1CCOCC1)c(=O)n2C [AZD7648]; conditions: max 10 µM
Summary of the method: as §1

Row | Cell Line | IC50, cell viability 72 h (AZD5153) | IC50, cell viability 72 h (AZD8186) | IC50, cell viability 72 h (Palbociclib) | IC50, cell viability 72 h (Alisertib) | IC50, cell viability 72 h (Dasatinib) | IC50, cell viability 72 h [1] | IC50, cell viability 72 h (AZD4320) | IC50, cell viability 72 h (AZD6738) | IC50, cell viability 72 h (Prexasertib) | IC50, cell viability 72 h (Trametinib) | IC50, cell viability 72 h (Gefitinib) | IC50, cell viability 72 h (AZD5991) | IC50, cell viability 72 h (Carboplatin) | IC50, cell viability 72 h (AZD0156) | IC50, cell viability 72 h (Savolitinib) | IC50, cell viability 72 h (SG3199) | IC50, cell viability 72 h (AZD1390) | IC50, cell viability 72 h (SN-38) | IC50, cell viability 72 h (Doxorubicin) | IC50, cell viability 72 h (MK-2206) | IC50, cell viability 72 h (Crizotinib) | IC50, cell viability 72 h (AZD1775) | IC50, cell viability 72 h (AZD2811) | IC50, cell viability 72 h (Taselisib) | IC50, cell viability 72 h (Olaparib) | IC50, cell viability 72 h (AZD5363) | IC50, cell viability 72 h (SRA737) | IC50, cell viability 72 h (Selumetinib) | IC50, cell viability 72 h (Lapatinib) | IC50, cell viability 72 h (Venetoclax) | IC50, cell viability 72 h (Paclitaxel) | IC50, cell viability 72 h (Etoposide) | IC50, cell viability 72 h (5-Fluorouracil) | IC50, cell viability 72 h (Gemcitabine) | IC50, cell viability 72 h (AZD7648)
1 | TE-5 (Esophageal Squamous Cell Carcinoma) | > 1000 nM | > 10000 nM | > 10000 nM | > 10000 nM | > 2000 nM | > 5000 nM | > 1000 nM | > 10000 nM | 884 nM | > 1000 nM | > 10000 nM | > 1000 nM | > 10000 nM | > 3000 nM | > 1000 nM | > 1 nM | > 300 nM | 55.8 nM | > 1000 nM | > 10000 nM | > 10000 nM | > 3000 nM | > 1000 nM | 2040 nM | > 10000 nM | > 10000 nM | > 10000 nM | > 10000 nM | > 10000 nM | > 1000 nM | 79.8 nM | > 10000 nM | > 20000 nM | 71.4 nM | > 10000 nM
2 | LS-513 (Colorectal Carcinoma) | 334 nM | > 10000 nM | 4870 nM | 1450 nM | > 2000 nM | 304 nM | > 1000 nM | 2760 nM | 87 nM | 3.66 nM | > 10000 nM | > 1000 nM | > 10000 nM | > 3000 nM | > 1000 nM | > 1 nM | > 300 nM | 42.6 nM | > 1000 nM | 2310 nM | 4090 nM | 789 nM | > 1000 nM | 1300 nM | > 10000 nM | > 10000 nM | 6760 nM | 419 nM | 4210 nM | > 1000 nM | 70 nM | > 10000 nM | 7250 nM | 28.2 nM | > 10000 nM
3 | NALM-6 (B-Lymphoblastic Leukemia) | 31.9 nM | 1220 nM | 1410 nM | 238 nM | 1140 nM | > 5000 nM | 146 nM | 1050 nM | 11.7 nM | > 1000 nM | > 10000 nM | > 1000 nM | > 10000 nM | > 3000 nM | > 1000 nM | > 1 nM | > 300 nM | 5.89 nM | 106 nM | 816 nM | 1170 nM | 509 nM | 57 nM | 293 nM | > 10000 nM | 1370 nM | 2310 nM | > 10000 nM | 8220 nM | 380 nM | 5.65 nM | 302 nM | > 20000 nM | 3.63 nM | > 10000 nM
4 | IHH-4 (Thyroid Gland Carcinoma) | 680 nM | > 10000 nM | > 10000 nM | 5970 nM | 961 nM | 1220 nM | > 1000 nM | 4340 nM | 99.4 nM | 85.3 nM | > 10000 nM | > 1000 nM | > 10000 nM | > 3000 nM | > 1000 nM | > 1 nM | > 300 nM | 5.41 nM | 275 nM | > 10000 nM | 7340 nM | 414 nM | > 1000 nM | > 10000 nM | > 10000 nM | > 10000 nM | > 10000 nM | 4470 nM | > 10000 nM | > 1000 nM | 7 nM | 1670 nM | 3430 nM | 8.74 nM | > 10000 nM
5 | COR-L95 (Small Cell Lung Carcinoma) | > 1000 nM | > 10000 nM | > 10000 nM | > 10000 nM | > 2000 nM | > 5000 nM | 7.32 nM | > 10000 nM | 123 nM | > 1000 nM | > 10000 nM | > 1000 nM | > 10000 nM | > 3000 nM | > 1000 nM | > 1 nM | > 300 nM | 14.9 nM | 150 nM | > 10000 nM | > 10000 nM | > 3000 nM | > 1000 nM | > 10000 nM | > 10000 nM | > 10000 nM | > 10000 nM | > 10000 nM | > 10000 nM | 392 nM | > 3000 nM | > 10000 nM | > 20000 nM | > 300 nM | > 10000 nM
